Source: paper PMC11347632 (Scientific Reports, 2024)

Target: RPA70 (replication protein A) (Homo sapiens, UniProt P27694)
Assay: reconstituted RPA-dependent ATR kinase assay with western blot
Format: biochemical

Chain of RPA70 (replication protein A) (P15927 whole entry): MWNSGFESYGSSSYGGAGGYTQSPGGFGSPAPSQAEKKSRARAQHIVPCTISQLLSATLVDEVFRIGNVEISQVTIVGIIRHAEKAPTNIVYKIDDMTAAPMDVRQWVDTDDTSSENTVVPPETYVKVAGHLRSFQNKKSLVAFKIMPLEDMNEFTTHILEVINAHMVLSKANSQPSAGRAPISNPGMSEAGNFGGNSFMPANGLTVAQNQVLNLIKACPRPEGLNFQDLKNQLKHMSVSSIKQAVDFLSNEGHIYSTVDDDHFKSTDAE
Chain of RPA70 (replication protein A) (P35244 2-121, further chain): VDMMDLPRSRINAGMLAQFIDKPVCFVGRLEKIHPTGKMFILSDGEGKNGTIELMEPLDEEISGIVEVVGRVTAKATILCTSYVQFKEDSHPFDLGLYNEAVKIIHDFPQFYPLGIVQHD
Chain of RPA70 (replication protein A) (P27694 whole entry): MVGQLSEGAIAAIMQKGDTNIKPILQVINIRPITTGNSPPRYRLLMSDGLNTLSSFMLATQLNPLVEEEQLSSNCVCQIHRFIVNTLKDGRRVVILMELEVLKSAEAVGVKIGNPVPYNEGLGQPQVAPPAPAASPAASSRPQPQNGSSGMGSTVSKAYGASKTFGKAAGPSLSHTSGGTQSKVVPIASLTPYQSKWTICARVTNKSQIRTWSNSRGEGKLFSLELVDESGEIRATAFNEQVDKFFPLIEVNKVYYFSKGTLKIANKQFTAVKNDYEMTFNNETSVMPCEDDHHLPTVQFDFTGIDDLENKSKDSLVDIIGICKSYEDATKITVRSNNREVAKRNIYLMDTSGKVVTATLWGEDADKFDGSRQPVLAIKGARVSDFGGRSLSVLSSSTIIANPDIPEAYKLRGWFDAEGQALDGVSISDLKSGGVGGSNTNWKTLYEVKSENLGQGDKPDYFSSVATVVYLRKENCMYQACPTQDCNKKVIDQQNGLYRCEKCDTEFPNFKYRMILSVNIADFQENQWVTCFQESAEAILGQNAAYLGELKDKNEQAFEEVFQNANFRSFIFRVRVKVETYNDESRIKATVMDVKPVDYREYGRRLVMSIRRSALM

O=C1C=Cc2ccccc2/C1=C/Nc1ccccc1O [HAMNO, (1Z)-1-[(2-hydroxyanilino)methylidene]naphthalen-2-one]
reconstituted RPA-dependent ATR kinase assay with western blot: we titrated increasing amounts of HAMNO and PAME into the fully activated ATR reaction
